Data published in patent US5854216A, “Marker for growth hormone-releasing factor receptors” (Universite de Montreal, priority 1996, dated 1998).
Square brackets hold non-standard residues; d marks the D form. Peptide text beside a SMILES is read from it. Phe(4-NO2) = N[C@@H](Cc1ccc([N+](=O)[O-])cc1)C(=O)O

Columns and labels:
[1] = molecular target: T1, GRF receptor (adenylate cyclase activity in rat adenopituitary) (Rattus norvegicus, UniProt Q02644); experiment: Adenylate cyclase assay on anterior pituitary homogenates (cAMP by HPLC); format: biochemical; settings: Table 12; 50% of maximal cAMP accumulation induced by 1 μM hGRF(1-29)NH2; mean±SD of 2 or mean±SE of 3 to 6 experiments, 10 for hGRF(1-29)NH2
T1 construct: from tissue; host or cells: rat anterior pituitary homogenate
T1 sequence (Q02644 23-423 isoform Q02644-2 limits assumed): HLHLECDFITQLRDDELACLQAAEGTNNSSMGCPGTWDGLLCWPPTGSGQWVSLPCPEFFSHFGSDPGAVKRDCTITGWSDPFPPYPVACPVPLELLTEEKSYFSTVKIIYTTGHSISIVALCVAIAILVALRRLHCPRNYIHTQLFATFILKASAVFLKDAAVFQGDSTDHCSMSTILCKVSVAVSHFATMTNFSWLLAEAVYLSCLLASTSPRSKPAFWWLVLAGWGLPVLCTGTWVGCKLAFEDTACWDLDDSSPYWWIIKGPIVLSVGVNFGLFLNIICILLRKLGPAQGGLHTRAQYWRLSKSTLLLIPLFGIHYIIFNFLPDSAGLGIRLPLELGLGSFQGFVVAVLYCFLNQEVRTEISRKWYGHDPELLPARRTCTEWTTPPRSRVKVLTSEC
Method: The adenylate cyclase activity Nε-CF-[Lys^31 ]hGRF was performed on anterior pituitary homogenates as previously described (Lefrangois L. and Gaudreau P., J. Chromatogr., 1993, 619:116-120). Briefly, anterior pituitaries (pit.) were dissected out, rinsed and homogenized for 8 sec with a Micro Ultrasonic Cell Disrupter™, in ice-cold 20 mM Tris-HCl buffer (pH 7.5) containing 2 mM MgCl2 and 250 mM sucrose (1 pit./0.5 ml).
Samples of anterior pituitary homogenates (30-40 μg protein) were incubated in 1.5 ml Eppendorf™ tubes with 30 mM Tris-HCl, 5 mM MgCl2, 0.5 mM EGTA, containing 0.5 mM ATP, 1 mM IBMX, 10 μM GTP and an ATP regenerating system consisting of 2 mM creatine phosphate, 0.1 mg/ml creatine kinase and, 0.1 mg/ml myokinase in a final volume of 120 μl. Incubations were initiated by adding 20 μl of the homogenate to the reaction mixture which had previously been equilibrated at 37° C. for 2 min. The reactions were carried out for 8 min at 37° C. and stopped by heating the samples in boiling water for 4 min. Samples were centrifuged (12000 g, 5 min, 4° C.) and supernatants were filtered through 0.45 μm Millex HV4 ™ filters and transferred to autosampler vials for HPLC quantification of cAMP.

[2] = molecular target: T2, GRF receptors ([^125 I-Tyr^10 ]hGRF(1-44)NH2 binding sites in rat adenopituitary) (Rattus norvegicus, UniProt Q02644); experiment: Competitive binding assay with [^125 I-Tyr^10 ]hGRF(1-44)NH2 on anterior pituitary homogenates
T2 construct: from tissue; host or cells: rat anterior pituitary homogenate
T2 sequence (Q02644 23-423 isoform Q02644-2 limits assumed): T1 sequence (Q02644 23-423 isoform Q02644-2 limits assumed)
Method: The binding of [^125 I-Tyr^10 ]hGRF(1-44)NH2 was performed on anterior pituitary homogenates as previously described (Gaudreau P. et al., J. Biol. Chem., 1992, 35:1864-1869). Briefly, anterior pituitaries (pit.) were dissected out, rinsed and homogenized for 8 sec with a Micro Ultrasonic Cell Disrupter™, in ice-cold 50 mM Tris-HCl buffer, pH 7.4, containing 5 mM MgCl2 and 5 mM EDTA (1 pit./0.5 ml). These homogenates were used immediately. Competition studies were performed using 35-50 pM [^125 I-Tyr^10 ]hGRF(1-44)NH2 as radio-ligand,50 μl of homogenate (70 to 75 μg of protein), and increasing concentrations of Nε-CF-[Lys^31 ]hGRF or other GRF analogues (0-1000 nM) or with 2.4 μM rGRF(1-29)NH2 for determination of non-specific binding, in a total volume of 300 μl of Tris-HCl buffer, pH 7.4, containing 5 mM EDTA, 5 mM MgCl2 and 0.42% BSA. Incubations were carried out at 23° C. for 60 min and stopped by centrifugation (12,000 g, 5 min, at 4° C.). The radioactivity content in the pellet was measured by gamma counting. The affinity of hGRF(1-29)NH2 was tested in each experiment to assess the validity of the assay and determine the relative affinity of the analogues. […] The Hill values indicate that all these peptides bind to the high and low affinity GRF binding sites found in the anterior pituitary.

[3] = Table 11, mean±SD of 2 or mean±SE of 3 experiments for analogues, mean±SE of 11 for hGRF(1-29)NH2

Row | IC50 [1] | IC50 [2, 3] | IC50 (in words) [2] | Compound | further results
1 | 136 ± 50 nM | 31.6 ± 11.7 nM | – | CC[C@H](C)[C@H](NC(=O)[C@H](C)NC(=O)[C@H](CC(=O)O)NC(=O)[C@@H](C)NC(=O)[C@@H](N)Cc1ccc(O)cc1)C(=O)N[C@@H](Cc1ccccc1)C(=O)N[C@H](C(=O)N[C@@H](CC(N)=O)C(=O)N[C@@H](CO)C(=O)N[C@H](Cc1ccc(O)cc1)C(=O)N[C@@H](CCCNC(=N)N)C(=O)N[C@@H](CCCCN)C(=O)N[C@H](C(=O)N[C@@H](CC(C)C)C(=O)N[C@H](C)C(=O)N[C@@H](CCC(N)=O)C(=O)N[C@@H](CC(C)C)C(=O)N[C@@H](CO)C(=O)N[C@@H](C)C(=O)N[C@@H](CCCNC(=N)N)C(=O)N[C@H](CCCCN)C(=O)N[C@@H](CC(C)C)C(=O)N[C@@H](CC(C)C)C(=O)N[C@@H](CCC(N)=O)C(=O)N[C@@H](CC(=O)O)C(=O)N[C@H](C(=O)N[C@@H](CCSC)C(=O)N[C@@H](CO)C(=O)N[C@@H](CCCNC(=N)N)C(N)=O)[C@@H](C)CC)C(C)C)[C@@H](C)O [D-Ala^2, D-Tyr^10, D-Ala^15, D-Lys^21] (H-Y[dA]DAIFTNS[dY]RKVL[dA]QLSAR[dK]LLQDIMSR-NH2) | –
2 | 176 ± 87 nM | 13.1 ± 0.9 nM | – | CC[C@H](C)[C@H](NC(=O)[C@H](C)NC(=O)[C@H](CC(=O)O)NC(=O)[C@@H](C)NC(=O)[C@@H](N)Cc1ccc(O)cc1)C(=O)N[C@@H](Cc1ccccc1)C(=O)N[C@H](C(=O)N[C@@H](CC(N)=O)C(=O)N[C@@H](CO)C(=O)N[C@H](Cc1ccc(O)cc1)C(=O)N[C@@H](CCCNC(=N)N)C(=O)N[C@@H](CCCCN)C(=O)N[C@H](C(=O)N[C@@H](CC(C)C)C(=O)N[C@H](C)C(=O)N[C@@H](CCC(N)=O)C(=O)N[C@@H](CC(C)C)C(=O)N[C@@H](CO)C(=O)N[C@@H](C)C(=O)N[C@@H](CCCNC(=N)N)C(=O)N[C@@H](CCCCN)C(=O)N[C@@H](CC(C)C)C(=O)N[C@@H](CC(C)C)C(=O)N[C@@H](CCC(N)=O)C(=O)N[C@@H](CC(=O)O)C(=O)N[C@H](C(=O)N[C@@H](CCSC)C(=O)N[C@@H](CO)C(=O)N[C@@H](CCCNC(=N)N)C(N)=O)[C@@H](C)CC)C(C)C)[C@@H](C)O [D-Ala^2, D-Tyr^10, D-Ala^15] (H-Y[dA]DAIFTNS[dY]RKVL[dA]QLSARKLLQDIMSR-NH2) | –
3 | 67 ± 24 nM | 4.9 ± 3.25 nM | – | CC[C@H](C)[C@H](NC(=O)[C@H](C)NC(=O)[C@H](CC(=O)O)NC(=O)[C@H](C)NC(=O)[C@@H](N)Cc1ccc(O)cc1)C(=O)N[C@@H](Cc1ccccc1)C(=O)N[C@H](C(=O)N[C@H](CC(N)=O)C(=O)N[C@@H](CO)C(=O)N[C@@H](Cc1ccc(O)cc1)C(=O)N[C@@H](CCCNC(=N)N)C(=O)N[C@@H](CCCCN)C(=O)N[C@H](C(=O)N[C@@H](CC(C)C)C(=O)NCC(=O)N[C@@H](CCC(N)=O)C(=O)N[C@@H](CC(C)C)C(=O)N[C@@H](CO)C(=O)N[C@@H](C)C(=O)N[C@@H](CCCNC(=N)N)C(=O)N[C@@H](CCCCN)C(=O)N[C@H](CC(C)C)C(=O)N[C@@H](CC(C)C)C(=O)N[C@@H](CCC(N)=O)C(=O)N[C@@H](CC(=O)O)C(=O)N[C@H](C(=O)N[C@@H](CCSC)C(=O)N[C@@H](CO)C(=O)N[C@@H](CCCNC(=N)N)C(N)=O)[C@@H](C)CC)C(C)C)[C@@H](C)O [D-Ans^8, D-Leu^22] | –
4 | – | – | – | CC[C@H](C)[C@H](NC(=O)[C@H](C)NC(=O)[C@H](CC(=O)O)NC(=O)[C@H](C)NC(=O)[C@H](Cc1ccc(O)cc1)NC(=O)[C@@H](N)Cc1ccc([N+](=O)[O-])cc1)C(=O)N[C@@H](Cc1ccccc1)C(=O)N[C@H](C(=O)N[C@@H](CC(N)=O)C(=O)N[C@@H](CO)C(=O)N[C@@H](Cc1ccc(O)cc1)C(=O)N[C@@H](CCCNC(=N)N)C(=O)N[C@@H](CCCCN)C(=O)N[C@H](C(=O)N[C@@H](CC(C)C)C(=O)NCC(=O)N[C@@H](CCC(N)=O)C(=O)N[C@@H](CC(C)C)C(=O)N[C@@H](CO)C(=O)N[C@@H](C)C(=O)N[C@@H](CCCNC(=N)N)C(=O)N[C@@H](CCCCN)C(=O)N[C@@H](CC(C)C)C(=O)N[C@@H](CC(C)C)C(=O)N[C@@H](CCC(N)=O)C(=O)N[C@@H](CC(=O)O)C(=O)N[C@H](C(=O)N[C@@H](CCSC)C(=O)N[C@@H](CO)C(=O)N[C@@H](CCCNC(=N)N)C(N)=O)[C@@H](C)CC)C(C)C)[C@@H](C)O [npa0] | Hill coef. ([2]; Table 7): 0.63 ± 0.09; IC50 ([2]; Table 7, mean±SD of 2 or mean±SE of 3-6 experiments for analogues, mean±SE of 29 for hGRF(1-29)NH2): 18.3 ± 5.9 nM; Relative affinity ([2]; Table 7, ratio IC50 of hGRF(1-29)NH2 /IC50 analogue): 14 ± 5%
5 | – | – | low nanomolar range | CC[C@H](C)[C@H](NC(=O)[C@H](C)NC(=O)[C@H](CC(=O)O)NC(=O)[C@H](C)NC(=O)[C@@H](N)Cc1ccc(O)cc1)C(=O)N[C@@H](Cc1ccccc1)C(=O)N[C@H](C(=O)N[C@@H](CC(N)=O)C(=O)N[C@@H](Cc1ccc([N+](=O)[O-])cc1)C(=O)N[C@@H](Cc1ccc(O)cc1)C(=O)N[C@@H](CCCNC(=N)N)C(=O)N[C@@H](CCCCN)C(=O)N[C@H](C(=O)N[C@@H](CC(C)C)C(=O)NCC(=O)N[C@@H](CCC(N)=O)C(=O)N[C@@H](CC(C)C)C(=O)N[C@@H](CO)C(=O)N[C@@H](C)C(=O)N[C@@H](CCCNC(=N)N)C(=O)N[C@@H](CCCCN)C(=O)N[C@@H](CC(C)C)C(=O)N[C@@H](CC(C)C)C(=O)N[C@@H](CCC(N)=O)C(=O)N[C@@H](CC(=O)O)C(=O)N[C@H](C(=O)N[C@@H](CCSC)C(=O)N[C@@H](CO)C(=O)N[C@@H](CCCNC(=N)N)C(N)=O)[C@@H](C)CC)C(C)C)[C@@H](C)O [npa^9, [4'-nitro-phenylanalylalanine^9]hGRF(1-29)NH2] (H-YADAIFTN[Phe(4-NO2)]YRKVLGQLSARKLLQDIMSR-NH2) | –
6 | – | – | low nanomolar range | CC[C@H](C)[C@H](NC(=O)[C@H](C)NC(=O)[C@H](CC(=O)O)NC(=O)[C@H](C)NC(=O)[C@@H](N)Cc1ccc(O)cc1)C(=O)N[C@@H](Cc1ccccc1)C(=O)N[C@H](C(=O)N[C@@H](CC(N)=O)C(=O)N[C@@H](CO)C(=O)N[C@@H](Cc1ccc([N+](=O)[O-])cc1)C(=O)N[C@@H](CCCNC(=N)N)C(=O)N[C@@H](CCCCN)C(=O)N[C@H](C(=O)N[C@@H](CC(C)C)C(=O)NCC(=O)N[C@@H](CCC(N)=O)C(=O)N[C@@H](CC(C)C)C(=O)N[C@@H](CO)C(=O)N[C@@H](C)C(=O)N[C@@H](CCCNC(=N)N)C(=O)N[C@@H](CCCCN)C(=O)N[C@@H](CC(C)C)C(=O)N[C@@H](CC(C)C)C(=O)N[C@@H](CCC(N)=O)C(=O)N[C@@H](CC(=O)O)C(=O)N[C@H](C(=O)N[C@@H](CCSC)C(=O)N[C@@H](CO)C(=O)N[C@@H](CCCNC(=N)N)C(N)=O)[C@@H](C)CC)C(C)C)[C@@H](C)O [npa^10, [4'-nitro-phenylalanine^10]hGRF(1-29)NH2] (H-YADAIFTNS[Phe(4-NO2)]RKVLGQLSARKLLQDIMSR-NH2) | –
